Assay [1] concerns human B cell lymphoma cell KARPAS422. Description: Cell proliferation (WST-8), KARPAS422, 7 days. The format is cell-based. The conditions noted are these: KARPAS-422, 168 h, WST-8, Table 4A, read-out: Karpas Cell line. The procedure: Analysis of Cell Proliferation:
To assess the effect of PRC2 inhibition on cell growth, cells were seeded in 96-well cell culture plates at a density of 2 000-3 000 cells/well in 200 μL of culture medium, and treated with serially diluted compounds for 7 days at 37° C. in an atmosphere of 5% CO2. Cell growth was evaluated by a […] WST-8 assay (Dojindo Molecular Technologies) using a Tecan Infinite M1000 multimode microplate reader (Tecan, Morrisville, NC). The WST-8 reagent was added to the plate, incubated for 1-4 h, and read at 450 nm. The readings were normalized to the DMSO-treated cells, and the IC50 was calculated by nonlinear regression analysis using GraphPad Prism 6 software
(In general: Tetrazolium dyes change colour on reduction, which living cells bring about.)

In another assay the target is T1, EED (1-441)-His protein (Homo sapiens, UniProt O75530).
T1 construct: 20 nM EED (1-441)-His protein
T1 sequence (O75530 whole entry): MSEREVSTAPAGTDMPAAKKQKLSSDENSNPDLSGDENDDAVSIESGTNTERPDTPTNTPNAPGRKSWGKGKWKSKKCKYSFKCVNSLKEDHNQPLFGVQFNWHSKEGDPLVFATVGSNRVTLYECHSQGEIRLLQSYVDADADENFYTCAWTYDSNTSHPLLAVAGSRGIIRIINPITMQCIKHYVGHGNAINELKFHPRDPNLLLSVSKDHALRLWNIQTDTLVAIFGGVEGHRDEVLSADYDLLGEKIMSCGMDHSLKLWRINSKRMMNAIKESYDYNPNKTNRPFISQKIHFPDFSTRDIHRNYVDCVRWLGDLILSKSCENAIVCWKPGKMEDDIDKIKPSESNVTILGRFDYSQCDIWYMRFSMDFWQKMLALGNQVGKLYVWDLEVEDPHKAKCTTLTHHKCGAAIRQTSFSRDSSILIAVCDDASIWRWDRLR
Kind of assay: EED-H3K27Me3 peptide competition binding assay by AlphaScreen. The conditions noted are these: read-out: Alpha screen. An outline of the steps:
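Readout was AlphaScreen emission at 615 nm after 680 nm excitation, with 10 μg/ml final each of streptavidin donor and nickel chelate acceptor beads, 1 h at RT in the dark. Beforehand, compound met the His-tagged EED(1-441) for 15 min and then biotinylated H3K27Me3(19-33) peptide for 30 min; both were added as 20 nM solutions, buffer 25 mM HEPES pH 8, Tween-20, BSA. Percent activity left was fitted to give IC50.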

Like-named read-outs stand apart in the source and are kept apart here. A value given as a limit tells only on which side of the number the result lay.

With `CC(C)(F)CN1Cc2cc(F)ccc2-c2cnc(NCc3c(F)ccc4c3CCO4)n3cnc(c23)C1=O` [Compound 78, 7-fluoro-12-(((5-fluoro-2,3-dihydrobenzofuran-4-yl)methyl)amino)-4-(2-fluoro-2-methylpropyl)-4,5-dihydro-3H-2,4,11,12a-tetraazabenzo[4,5] cycloocta[1,2,3-cd]inden-3-one], the IC50 in assay [1] was found to be 34.5 nM; at EED (1-441)-His protein (Table 4A) it was 3.23 nM.

With `O=C1c2ncn3c(NCc4c(F)ccc5c4CCO5)ncc(c23)-c2ccc(F)cc2CN1C1CC1` [Compound 64, 4-cyclopropyl-7-fluoro-12-(((5-fluoro-2,3-dihydrobenzofuran-4-yl)methyl)amino)-4,5-dihydro-3H-2,4,11,12a-tetraazabenzo[4,5]cycloocta[1,2,3-cd] inden-3-one], in assay [1], the IC50 turned out to be 2.44 nM.

For the compound `O=C1c2ncn3c(NCc4c(F)ccc5c4CCO5)ncc(c23)-c2ccc(F)cc2CN1C1CCOCC1` [Compound 65, 7-fluoro-12-(((5-fluoro-2,3-dihydrobenzofuran-4-yl)methyl)amino)-4-(tetrahydro-2H-pyran-4-yl)-4,5-dihydro-3H-2,4,11,12a-tetraazabenzo[4,5] cycloocta[1,2,3-cd]inden-3-one], the IC50 in assay [1] worked out at 0.69 nM.

On to `O=C1c2ncn3c(NCc4c(F)ccc5c4CCO5)ncc(c23)-c2ccc(F)cc2CN1CC(F)F` [Compound 80, 4-(2,2-difluoroethyl)-7-fluoro-12-(((5-fluoro-2,3-dihydrobenzofuran-4-yl)methyl)amino)-4,5-dihydro-3H-2,4,11,12a-tetraazabenzo[4,5]cycloocta[1,2,3-cd]inden-3-one], for which the IC50 in assay [1] is 2.42 nM; at EED (1-441)-His protein (Table 4A) it was 1.61 nM.

In the case of `O=C1c2ncn3c(NCc4c(F)ccc5c4CCO5)ncc(c23)-c2ccc(F)cc2CN1CCF` [Compound 79, 7-fluoro-12-(((5-fluoro-2,3-dihydrobenzofuran-4-yl)methyl)amino)-4-(2-fluoroethyl)-4,5-dihydro-3H-2,4,11,12a-tetraazabenzo[4,5]cycloocta [1,2,3-cd]inden-3-one], the values for the IC50 (in assay [1]; at EED (1-441)-His protein (Table 4A)) were 15.3 nM and 1.61 nM, respectively.

On to `CN1CCC(N2Cc3cc(F)ccc3-c3cnc(NCc4c(F)ccc5c4CCO5)n4cnc(c34)C2=O)CC1` [Compound 75, 7-fluoro-12-(((5-fluoro-2,3-dihydrobenzofuran-4-yl)methyl)amino)-4-(1-methylpiperidin-4-yl)-4,5-dihydro-3H-2,4,11,12a-tetraazabenzo[4,5] cycloocta[1,2,3-cd]inden-3-one], for which the values for the IC50 (in assay [1]; at EED (1-441)-His protein (Table 4A)) were 11.1 nM and 1.72 nM, respectively.

Regarding `CC(F)(F)CN1Cc2cc(F)ccc2-c2cnc(NCc3c(F)ccc4c3CCO4)n3cnc(c23)C1=O` [Compound 76, 4-(2,2-difluoropropyl)-7-fluoro-12-(((5-fluoro-2,3-dihydrobenzofuran-4-yl)methyl)amino)-4,5-dihydro-3H-2,4,11,12a-tetraazabenzo[4,5]cycloocta [1,2,3-cd]inden-3-one], the IC50 in assay [1] worked out at 14.5 nM; on EED (1-441)-His protein (Table 4A), 0.97 nM.

`CC(F)(F)CN1Cc2cc(C(F)(F)F)ncc2-c2cnc(NCc3c(F)ccc4c3CCO4)n3cnc(c23)C1=O` [Compound 82, 4-(2,2-difluoropropyl)-12-(((5-fluoro-2,3-dihydrobenzofuran-4-yl)methyl)amino)-7-(trifluoromethyl)-4,5-dihydro-3H-2,4,8,11,12a-pentaazabenzo[4,5] cycloocta[1,2,3-cd]inden-3-one]: the IC50 on EED (1-441)-His protein (Table 4A) is 10.5 nM.

`O=C1NCc2cc(F)ccc2-c2cnc(NCc3c(F)ccc4c3CCO4)n3cnc1c23` [Compound 17, 7-fluoro-12-(((5-fluoro-2,3-dihydrobenzofuran-4-yl)methyl)amino)-4,5-dihydro-3H-2,4,11,12a-tetra azabenzo[4,5]cycloocta[1,2,3-cd]inden-3-one]: the IC50 on EED (1-441)-His protein (Table 4A) stood at 0.66 nM.

In the case of `Cc1ccc2c(n1)Cn1c(C)cnc1-c1ncn3c(NCc4c(F)ccc5c4CCO5)ncc-2c13` [E 18, N-((5-fluoro-2,3-dihydrobenzofuran-4-yl)methyl)-5,8-dimethyl-6H-2,3,5a,7,12,13a-hexaazabenzo[4, 5]cyclopenta[7,8]cycloocta[1,2,3-cd]inden-13-amine], the IC50 on EED (1-441)-His protein (IC50 class, Table 4B) was less than 10 nM.

In the case of `CS(=O)(=O)c1ccc2c(c1)NC(=O)c1ncn3c(NCc4c(F)ccc5c4CCO5)ncc-2c13` [Compound 5, 11-(((5-fluoro-2,3-dihydrobenzofuran-4-yl)methyl)amino)-6-(methylsulfonyl)-2,4,10,11a-tetraazadibenzo[cd,f]azulen-3(4H)-one], the IC50 on EED (1-441)-His protein (Table 4A) was 0.26 nM.

As to `COCCN1Cc2nc(C(F)(F)F)ccc2-c2cnc(NCc3c(F)ccc4c3CCO4)n3cnc(c23)C1=O` [Compound 57, 12-(((5-fluoro-2,3-dihydrobenzofuran-4-yl)methyl)amino)-4-(2-methoxyethyl)-7-(trifluoromethyl)-4,5-dihydro-3H-2,4,6,11,12a-pentaazabenzo[4,5] cycloocta[1,2,3-cd]inden-3-one], the IC50 at EED (1-441)-His protein (Table 4A) came out at 4.2 nM.

Take `O=C1c2ncn3c(NCc4c(F)ccc5c4CCO5)ncc(c23)-c2ccc(C(F)(F)F)cc2CN1CC(F)(F)F` [Compound 83, 12-(((5-fluoro-2,3-dihydrobenzofuran-4-yl)methyl)amino)-4-(2,2,2-trifluoroethyl)-7-(trifluoromethyl)-4,5-dihydro-3H-2,4,11,12a-tetraazabenzo[4,5] cycloocta[1,2,3-cd]inden-3-one]: the IC50 on EED (1-441)-His protein (Table 4A) was 9.95 nM.

As to `O=C1c2ncn3c(NCc4c(F)ccc5c4CCO5)ncc(c23)-c2ccc(C(F)(F)F)cc2CN1C1CC1` [Compound 67, 4-cyclopropyl-12-(((5-fluoro-2,3-dihydrobenzo-furan-4-yl)methyl)amino)-7-(trifluoromethyl)-4,5-dihydro-3H-2,4,11,12a-tetraazabenzo[4,5]cycloocta [1,2,3-cd]inden-3-one], the IC50 on EED (1-441)-His protein (Table 4A) came out at 2.87 nM.

`O=C1c2ncn3c(NCc4c(F)ccc5c4CCO5)ncc(c23)-c2ccc(C3CCC3)nc2CN1CC(F)(F)F` [E 52, 7-cyclobutyl-12-(((5-fluoro-2,3-dihydrobenzofuran-4-yl)methyl)amino)-4-(2,2,2-trifluoroethyl)-4,5-dihydro-3H-2,4,6,11,12a-pentaazabenzo[4,5] cycloocta[1,2,3-cd]inden-3-one]: the IC50 on EED (1-441)-His protein (IC50 class, Table 4B) is less than 10 nM.

For `CC(C)(C)c1cc2c(cn1)-c1cnc(NCc3c(F)ccc4c3CCO4)n3cnc(c13)C(=O)N(CC(F)(F)F)C2` [E 46, 7-(tert-butyl)-12-(((5-fluoro-2,3-dihydrobenzofuran-4-yl)methyl)amino)-4-(2,2,2-trifluoroethyl)-4,5-dihydro-3H-2,4,8,11,12a-pentaazabenzo[4,5]cyclo octa[1,2,3-cd]inden-3-one], the IC50 on EED (1-441)-His protein (IC50 class, Table 4B) is less than 10 nM.

The values above are taken from US20240316051A1, “A PHARMACEUTICAL COMBINATION AND USE THEREOF” (Ascentage Pharma (Suzhou) Co., Ltd., priority 2021, published 2024).
